The source of these data is PMC8472287, “Betulinic Acid Decorated with Polar Groups and Blue Emitting BODIPY Dye: Synthesis, Cytotoxicity, Cell-Cycle Analysis and Anti-HIV Profiling” (Biomedicines, 2021).

Each structure is given as a SMILES string. Where a name gives a salt, the structure may show the parent alone. Read-outs that look alike come from different tables or passages of the source.

Data set [1] concerns K562. Put plainly: MTS cytotoxicity assay, K562. The data set is classed as cell-based. Particulars: Homo sapiens, 72 h, 3-day incubation. An excerpt: (§1) All cells (if not indicated otherwise) were purchased from the American Tissue Culture Collection (ATCC; Manassas, VA, USA). The highly chemosensitive CCRF-CEM line is derived from T lymphoblastic leukaemia, K562 represent cells of chronic myelogenous leukaemia. Colorectal adenocarcinoma HCT116 cell line and its p53 gene knockout counterpart (HCT116p53−/−, Horizon Discovery Ltd., Cambridge, UK) were used as models to assess the impact of p53 deficiency on cell line sensitivity. A549 cells are derived from lung adenocarcinoma and U2OS from human osteosarcoma. CEM-DNR and K562-Tax are well-characterized daunorubicin and paclitaxel-resistant sublines of CCRF-CEM and K562. The CEM-DNR resistant cells overexpress the P-glycoprotein and LRP protein, the K562-Tax overexpress P-glycoprotein but is losing the expression of LRP, which is present at parental K562 cell line. P-glycoprotein belongs to the ABC transporters’ family and is involved in the primary and acquired multidrug resistance phenomenon by the efflux of toxic compounds, LRP protein is involved in the lysosomal degradation. MRC-5 and BJ cell lines were used as a non-tumour control and represent human fibroblasts. The cells were maintained in Nunc/Corning 80 cm^2 plastic tissue culture flasks and cultured in cell culture medium according to ATCC or Horizon recommendations (DMEM/RPMI 1640 with 5 g/L-glucose, 2 mM glutamine, 100 U/mL penicillin, […] streptomycin, 10% fetal calf serum, and NaHCO3).
(§2) To perform the cytotoxicity MTS assay, cell suspensions were prepared and diluted according to the cell type and the expected target cell density (25,000–35,000 cells/mL) based on cell growth characteristics. Cells were added by an automatic pipettor (30 μL) into 384 well microtiter plates. All tested compounds were dissolved in 100% DMSO and four-fold dilutions of the intended test concentration were added in 0.15 μL aliquots at time zero to the microtiter plate wells by the echo-acoustic liquid handler Echo550 (Labcyte, San Jose, CA, USA). The experiments were performed in technical duplicates and at least three biological replicates. The cells were incubated with the tested compounds for 72 h at 37 °C, in a 5% CO2 atmosphere at 99% humidity. At the end of the incubation period, the cells were assayed by using the MTS test. Aliquots (5 µL) of the MTS stock solution were pipetted into each well and incubated for an additional 1–4 h. After this incubation period, the optical density (OD) was measured at 490 nm with an Envision microplate reader (Perkin Elmer, Waltham, Massachusetts, USA). Tumour cell survival (TCS) was calculated using the following equation: TCS = (ODdrug-exposed well/mean ODcontrol wells) × 100%.
(Tetrazolium assays rely on reduction of a dye to a coloured formazan, in cell work by metabolically active cells.)

The test system of data set [2] is K562-Tax. Put plainly: MTS cytotoxicity assay, K562-Tax. The data set is classed as cell-based. As to conditions: Homo sapiens, 72 h, K562-Tax (paclitaxel-resistant), 3-day incubation.
Excerpt: as §1, §2

Data set [3] has as its system CEM-DNR. Put plainly: MTS cytotoxicity assay, CEM-DNR. Particulars: Homo sapiens, 72 h, CEM-DNR (daunorubicin resistant), 3-day incubation. It counts as cell-based.
Excerpt: as §1, §2

Data set [4] concerns U2OS. The data set can be described thus: MTS cytotoxicity assay, U2OS. It counts as cell-based. Particulars: Homo sapiens, 72 h, 3-day incubation.
Excerpt: as §1, §2

Data set [5] deals with BJ. The data set can be described thus: MTS cytotoxicity assay, BJ. As to conditions: Homo sapiens, 72 h, BJ normal fibroblasts, 3-day incubation. It counts as cell-based.
Excerpt: as §1, §2

The test system of data set [6] is A549. The data set can be described thus: MTS cytotoxicity assay, A549. The data set is classed as cell-based. Particulars: Homo sapiens, 72 h, 3-day incubation.
Excerpt: as §1, §2

For data set [7], the system named is CCRF-CEM. The data set can be described thus: MTS cytotoxicity assay, CCRF-CEM. The data set is classed as cell-based. As to conditions: Homo sapiens, 72 h, 3-day incubation.
Excerpt: as §1, §2

The subject of data set [8] is MRC-5. The data set can be described thus: MTS cytotoxicity assay, MRC-5. It counts as cell-based. Particulars: Homo sapiens, MRC5, 72 h, MRC-5 normal fibroblasts, 3-day incubation.
Excerpt: as §1, §2

The test system of data set [9] is entire cell line panel.
Data set [10] has as its system HCT116. Put plainly: MTS cytotoxicity assay, HCT116. It counts as cell-based. As to conditions: Homo sapiens, HCT-116, 72 h, 3-day incubation.
Excerpt: as §1, §2

The subject of data set [11] is HCT116p53−/−. The data set can be described thus: MTS cytotoxicity assay, HCT116p53−/−. The data set is classed as cell-based. Particulars: Homo sapiens, HCT116-p53-null, 72 h, HCT116p53−/− (null p53 gene), 3-day incubation.
Excerpt: as §1, §2

Data set [12] can be described thus: in vitro. Particulars: human.
For data set [13], the system named is VSV-G pseudotyped HIV-1 particles. Put plainly: microbe, parasite or virus in culture. Particulars: for IC50: read-out: IC50i (50% infection inhibition). The data set is classed as cell-based.
In data set [14] the test system is CA-SP1 processing of HIV-1 Gag polyprotein. Put plainly: Western blot of released virions with anti-HIV-1 CA antibody. The data set is classed as cell-based.
Where [15] appears, read: Human immunodeficiency virus 1, HEK293, 48 h.

Consider `C=C(C)[C@@H]1CC[C@]2(C(=O)O)CC[C@]3(C)[C@H](CC[C@@H]4[C@@]5(C)CC[C@H](OC(=O)CC(C)(C)C(=O)O)C(C)(C)[C@@H]5CC[C@]43C)[C@@H]12` [BT, 3-O-(3,3-dimethylsuccinyl) betulinic acid, reference compound], for which the IC50 in [1] is 23.6 µM; in data set [2], 22 µM; in data set [3], 22.2 µM; in [4], 27.6 µM; in data set [5] it was over 50 µM; in data set [6], 23.1 µM. The IC50 in [7] was 12.8 µM; in [8], over 50 µM; in data set [10], 14.2 µM; in [11] it was 18.2 µM. The “cytotoxic effect in the cell line panel (in words)” value (“cytotoxic effect” for short) in data set [9] is recorded as “weak or medium cytotoxic effect”.

For `C=C(C)[C@@H]1CC[C@]2(C(=O)NCCCN=[N+]=[N-])CC[C@]3(C)[C@H](CC[C@@H]4[C@@]5(C)CC[C@H](O)C(C)(C)[C@@H]5CC[C@]43C)[C@@H]12` [Compound 1, (3β)-N-(3-Azidopropyl)-3-hydroxylup-20(29)-ene-28-amide], the IC50 was over 50 µM in data set [1]; over 40 µM in [12]; 10.6 µM in data set [2]; 16.8 µM in data set [3]; 29 µM in data set [4]; over 50 µM in data set [5]. For the same compound, the IC50 in data set [6] is over 50 µM; in data set [7] it was 8.98 µM; in data set [8], over 50 µM; in [13] (setting [15]) it was over 50 µM; in [10], over 50 µM; in data set [11], over 50 µM. In addition, the “cytotoxic effect” value in [9] is “activity only against selected cell lines”. The “anti-HIV-1 activity (in words)” value in data set [13] is reported as “did not exhibit any potent anti-HIV-1 activity”.

Take `C=C(C)[C@@H]1CC[C@]2(C(=O)NCCCN=[N+]=[N-])CC[C@]3(C)[C@H](CC[C@@H]4[C@@]5(C)CC[C@H](OC(=O)CCNC6=C7C=CC=[N+]7[B-](F)(F)n7cccc76)C(C)(C)[C@@H]5CC[C@]43C)[C@@H]12` [Compound 5, (3β)-N-(3-Azidopropyl)-3-[N´-(4,4-difluoro-4-bora-3a,4a-diaza-s-indacene-8-yl)-β-alanyl]-oxy-lup-20(29)-ene-28-amide]: the values for the IC50 in [12] and in [13] (setting [15]) were over 40 µM and over 50 µM, respectively. In addition, the “cytotoxic effect” value in [9] is listed as “did not induce any cytotoxic effect”. In addition, in data set [13], the “anti-HIV-1 activity (in words)” value is listed as “did not exhibit any potent anti-HIV-1 activity”.

As for `C=C(C)[C@@H]1CC[C@]2(C(=O)NCCCNC(=O)OC(C)(C)C)CC[C@]3(C)[C@H](CC[C@@H]4[C@@]5(C)CC[C@H](O)C(C)(C)[C@@H]5CC[C@]43C)[C@@H]12` [Compound 7, Tert-butyl-(3-{[(3β)-3-hydroxy-28-oxolup-20(29)-ene-28-yl]amino}propyl)-carbamate], the IC50 in data set [1] is over 50 µM; in [12] it was over 40 µM; in data set [2], over 50 µM; in data set [3], over 50 µM; in [4] it was 18.4 µM; in [5] it was 20.7 µM. Besides, the IC50 in data set [6] was 21.3 µM; in data set [7] it was over 50 µM; in data set [8], 17.6 µM; in [13] (setting [15]), over 50 µM; in [10], over 50 µM; in data set [11] it was over 50 µM. In addition, the “cytotoxic effect” value in data set [9] was “activity only against selected cell lines”. Besides, in data set [13], the “anti-HIV-1 activity (in words)” value was “did not exhibit any potent anti-HIV-1 activity”.

Consider `C=C(C)[C@@H]1CC[C@]2(C(=O)NCCCN)CC[C@]3(C)[C@H](CC[C@@H]4[C@@]5(C)CC[C@H](OC(=O)CC(C)(C)C(=O)O)C(C)(C)[C@@H]5CC[C@]43C)[C@@H]12` [Compound 9, 4-{[(3β)-28-[(3-Aminopropyl)amino]-28-oxolup-20(29)-ene-3-yl]oxy}-2,2-dimethyl-4-oxo-butanooic acid hydrochloride], for which the “CA forms identified in released viruses (CA-SP1 processing)” value in [14] is “not only fully processed p24 CA, but also p25 CA-SP1 protein”. The IC50 in [1] is over 50 µM; in data set [12] it was over 40 µM; in data set [2], over 50 µM; in data set [3], over 50 µM; in data set [4], over 50 µM; in data set [5], over 50 µM. For the same compound, the IC50 was over 50 µM in [6]; 22.5 µM in data set [7]; over 50 µM in data set [8]; 14 µM in data set [13] (setting [15]); over 50 µM in data set [10]; over 50 µM in data set [11]. Also, the “cytotoxic effect” value in data set [9] is “inactive”.

For the compound `C=C(C)[C@@H]1CC[C@]2(C(=O)N3CCN(CCNC(=O)OC(C)(C)C)CC3)CC[C@]3(C)[C@H](CC[C@@H]4[C@@]5(C)CC[C@H](O)C(C)(C)[C@@H]5CC[C@]43C)[C@@H]12` [Compound 13, Tert-butyl-(2-{4-[(3β)-3-hydroxy-28-oxolup-20(29)-ene-28-yl]piperazine-1-yl}ethyl)-carbamate], the IC50 in [1] is 5.09 µM; in data set [12] it was over 40 µM; in data set [2], 8.77 µM; in data set [3], 4.76 µM; in [4], 4.16 µM; in data set [5] it was 5.36 µM. In addition, the IC50 in data set [6] is 5.15 µM; in [7], over 50 µM; in data set [8], 5.18 µM; in [13] (setting [15]) it was over 50 µM; in data set [10], 6.02 µM; in [11], 4.99 µM. Further, the “cytotoxic effect” value in [9] is reported as “high cytotoxicity”. Also, the “anti-HIV-1 activity (in words)” value in data set [13] is recorded as “did not exhibit any potent anti-HIV-1 activity”.

Consider `C=C(C)[C@@H]1CC[C@]2(C(=O)N3CCN(CCNC4=C5C=CC=[N+]5[B-](F)(F)n5cccc54)CC3)CC[C@]3(C)[C@H](CC[C@@H]4[C@@]5(C)CC[C@H](O)C(C)(C)[C@@H]5CC[C@]43C)[C@@H]12` [Compound 15, (3β)-28-{4-[N-(4,4-Difluoro-4-bora-3a,4a-diaza-s-indacene-8-yl)-2-aminoethyl]piperazine-1-yl}-3-hydroxylup-20(29)-ene-28-one], for which the IC50 is over 40 µM in data set [12] and over 50 µM in data set [13] (setting [15]). For the same compound, the “cytotoxic effect” value in data set [9] is listed as “did not induce any cytotoxic effect”. The “anti-HIV-1 activity (in words)” value in data set [13] is “did not exhibit any potent anti-HIV-1 activity”.

On to `C=C(C)[C@@H]1CC[C@]2(C(=O)N3CCN(CCNC(=O)OC(C)(C)C)CC3)CC[C@]3(C)[C@H](CC[C@@H]4[C@@]5(C)CC[C@H](OC(=O)CC(C)(C)C(=O)O)C(C)(C)[C@@H]5CC[C@]43C)[C@@H]12` [Compound 16, 4-{[(3β)-28-(4-{2-[(Tert-butoxycarbonyl)amino]ethyl}piperazine-1-yl)-28-oxolup-20(29)-ene-3-yl]oxy}-2,2-dimethyl-4-oxobutanoic acid], for which the “CA forms identified in released viruses (CA-SP1 processing)” value in data set [14] is “not only fully processed p24 CA, but also p25 CA-SP1 protein”. The IC50 was 47.9 µM in data set [1]; over 40 µM in data set [12]; over 50 µM in data set [2]; over 50 µM in data set [3]; 44.6 µM in data set [4]; 47.6 µM in data set [5]. Moreover, the IC50 is 44.9 µM in [6]; over 50 µM in data set [7]; 44.6 µM in [8]; under 10 µM in data set [13] (setting [15]); 9.1 µM in [13]; 46.6 µM in data set [10]. In data set [11], the IC50 stood at 44.8 µM. The “cytotoxic effect” value in data set [9] is listed as “did not induce any cytotoxic effect”.
